How the values were obtained:
Test in all cases: Bliss excess, mean over the matrix (fraction); higher = more synergy
[1] = test system: COLO-678 (Colorectal Carcinoma)
Outline: (§1)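 Cell lines in DMEM/F12 or RPMI with 10% FBS were plated in 1536-well plates, held 24 hours at 37°C, 5% CO2, then given two-drug dose matrices for 72 hours (DMSO typically 0.2%). Viability was read by CellTiter-Glo 2.0 luminescence and scaled as inhibition from 0 (vehicle wells) to 1 (blank wells). Combination Emax is the second-highest inhibition in the matrix; Bliss excess is observed combination effect minus expected EA + EB − EA·EB, EA and EB being single-agent effects.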

[2] = test system: DND-41 (T-Lymphoblastic Leukemia)
Outline: as §1

[3] = test system: DiFi (Colorectal Carcinoma)
Outline: as §1

[4] = test system: EVSA-T (Breast Carcinoma)
Outline: as §1

[5] = test system: HDQ-P1 (Breast Carcinoma)
Outline: as §1

[6] = test system: K-562 (Chronic Myelogenous Leukemia)
Outline: as §1

[7] = test system: KCL-22 (Chronic Myelogenous Leukemia)
Outline: as §1

[8] = test system: KYSE-180 (Esophageal Squamous Cell Carcinoma)
Outline: as §1

[9] = test system: L-540 (Hodgkin's Lymphoma)
Outline: as §1

[10] = test system: LN-18 (Glioblastoma)
Outline: as §1

[11] = test system: MFM-223 (Breast Carcinoma)
Outline: as §1

[12] = test system: NCI-H1792 (Lung Adenocarcinoma)
Outline: as §1

[13] = test system: P12-ICHIKAWA (T-Lymphoblastic Leukemia)
Outline: as §1

[14] = test system: PANC-08-13 (Pancreatic Carcinoma)
Outline: as §1

[15] = test system: SR (Other Blood Carcinomas)
Outline: as §1

[16] = test system: SW837 (Colorectal Carcinoma)
Outline: as §1

[17] = test system: TC-71 (Ewing's Sarcoma)
Outline: as §1

[18] = test system: TE-6 (Esophageal Squamous Cell Carcinoma)
Outline: as §1

[19] = test system: TOV-112D (Ovarian Carcinoma)
Outline: as §1

[20] = test system: U251 (Low Grade Glioma)
Outline: as §1

Row | SMILES | Bliss excess [1] | Bliss excess [2] | Bliss excess [3] | Bliss excess [4] | Bliss excess [5] | Bliss excess [6] | Bliss excess [7] | Bliss excess [8] | Bliss excess [9] | Bliss excess [10] | Bliss excess [11] | Bliss excess [12] | Bliss excess [13] | Bliss excess [14] | Bliss excess [15] | Bliss excess [16] | Bliss excess [17] | Bliss excess [18] | Bliss excess [19] | Bliss excess [20]
1 | Cc1c2c(nn1C)CSCc1cc(n(C)n1)CSc1cc(c3ccccc3c1)OCCCc1c(C(=O)O)n(C)c3c-2c(Cl)ccc13 [AZD5991] + C[C@@H]1COCCN1C2=NC(=NC(=C2)C3(CC3)[S@](=N)(=O)C)C4=C5C=CNC5=NC=C4 [AZD6738] (first compound max 1 µM, 7x7, partner max 10 µM) | -0.0899 | 0.0215 | 0.0302 | -0.0015 | 0.0563 | -0.0091 | -0.0163 | 0.0821 | 0.0278 | 0.037 | 0.0601 | 0.0332 | 0.0312 | 0.0337 | 0.0941 | 0.0152 | 0.0554 | 0.0298 | 0.0477 | 0.0572
2 | CC1(C)CCC(CN2CCN(c3ccc(C(=O)NS(=O)(=O)c4ccc(NCC5CCOCC5)c([N+](=O)[O-])c4)c(Oc4cnc5[nH]ccc5c4)c3)CC2)=C(c2ccc(Cl)cc2)C1 [Venetoclax] + Cc1cc2ncnn2cc1Nc1ncc2c(n1)n(C1CCOCC1)c(=O)n2C [AZD7648] (first compound max 1 µM, 7x7, partner max 10 µM) | -0.0531 | -0.0221 | -0.0389 | -0.0394 | -0.0288 | -0.0011 | 0.0097 | 0.0053 | 0.0588 | 0.045 | -0.0672 | -0.0591 | 0.0424 | -0.0576 | -0.0115 | -0.0563 | -0.0333 | -0.0041 | -0.0253 | -0.0719
3 | Cc1c2c(nn1C)CSCc1cc(n(C)n1)CSc1cc(c3ccccc3c1)OCCCc1c(C(=O)O)n(C)c3c-2c(Cl)ccc13 [AZD5991] + CN(C)CCCOc1ccc(-c2ccc3ncc4c(c3c2)n(C2CCOCC2)c(=O)n4C)cn1 [AZD0156] (first compound max 1 µM, 7x7, partner max 1 µM) | -0.0427 | 0.0195 | -0.0112 | -0.0304 | 0.0104 | 0.0048 | 0.0191 | 0.0286 | -0.0021 | 0.0444 | -0.0038 | 0.0004 | 0.108 | -0.0158 | 0.0246 | 0.0004 | -0.001 | -0.0167 | -0.0265 | 0.0334
4 | COc1nnc2ccc(N3CCC(c4ccc(OCCN5CCN(C)C(=O)[C@H]5C)cc4)CC3)nn12 [AZD5153] + C=CCn1c(=O)c2cnc(Nc3ccc(N4CCN(C)CC4)cc3)nc2n1-c1cccc(C(C)(C)O)n1 [AZD1775] (first compound max 1 µM, partner max 1 µM) | -0.0287 | -0.0027 | -0.0761 | -0.0108 | -0.041 | -0.0718 | -0.0578 | -0.0323 | -0.0433 | -0.0502 | -0.0679 | -0.0428 | 0.0148 | 0.0108 | -0.074 | -0.0653 | 0.0354 | -0.0166 | -0.0434 | 0.0398
5 | CC(=O)c1c(C)c2cnc(Nc3ccc(N4CCNCC4)cn3)nc2n(C2CCCC2)c1=O [Palbociclib] + Cn1cnc2c(F)c(Nc3ccc(Br)cc3Cl)c(C(=O)NOCCO)cc21 [Selumetinib] (first compound max 10 µM, 7x7, partner max 10 µM) | -0.071 | 0.0601 | 0.0274 | -0.0035 | -0.0555 | 0.0221 | -0.0021 | -0.0135 | -0.071 | 0.0293 | 0.0341 | 0.119 | 0.138 | -0.0053 | 0.0352 | 0.0075 | -0.012 | 0.0172 | 0.068 | -0.0013
6 | CN(CCO)CC[C@H](CSc1ccccc1)Nc1ccc(S(=O)(=O)NC(=O)c2ccc(N3CCC([C@@H](O)c4ccccc4-c4ccc(Cl)cc4)CC3)cc2)cc1S(=O)(=O)C(F)(F)F [AZD4320] + C[C@@H](Nc1cc(F)cc(F)c1)c1cc(C(=O)N(C)C)cc2c(=O)cc(N3CCOCC3)oc12 [AZD8186] (first compound max 1 µM, 7x7, partner max 3 µM) | 0.0221 | 0.0338 | -0.034 | 0.0222 | -0.0018 | 0.0309 | 0.0307 | 0.0343 | 0.068 | 0.0608 | -0.0059 | 0.0942 | 0.0502 | -0.007 | 0.0428 | -0.0491 | -0.027 | 0.0313 | -0.0108 | -0.0013
7 | CC1(C)CCC(CN2CCN(c3ccc(C(=O)NS(=O)(=O)c4ccc(NCC5CCOCC5)c([N+](=O)[O-])c4)c(Oc4cnc5[nH]ccc5c4)c3)CC2)=C(c2ccc(Cl)cc2)C1 [Venetoclax] + C1CN(CCC1(C(=O)N[C@@H](CCO)C2=CC=C(C=C2)Cl)N)C3=NC=NC4=C3C=CN4 [Capivasertib] (first compound max 1 µM, 7x7, partner max 3 µM) | -0.118 | 0.0019 | -0.022 | -0.0371 | -0.0234 | -0.0902 | 0.0015 | -0.0208 | -0.0178 | -0.0374 | -0.0258 | -0.0549 | 0.0039 | -0.0608 | -0.0142 | -0.0256 | -0.0684 | 0.0217 | -0.0285 | -0.0133
8 | Cc1c2c(nn1C)CSCc1cc(n(C)n1)CSc1cc(c3ccccc3c1)OCCCc1c(C(=O)O)n(C)c3c-2c(Cl)ccc13 [AZD5991] + CCN(CCO)CCCOc1ccc2c(Nc3cc(CC(=O)Nc4cccc(F)c4)[nH]n3)ncnc2c1 [AZD2811] (first compound max 1 µM, 7x7, partner max 1 µM) | -0.0673 | 0.0265 | -0.0077 | 0.0959 | -0.0283 | 0.086 | 0.0736 | 0.102 | 0.0788 | -0.029 | 0.0103 | 0.016 | -0.0164 | 0.0135 | 0.178 | -0.0341 | -0.0244 | 0.0482 | 0.0906 | 0.098

— the supplement of paper PMC11061612
